Test results published in patent US6309842A, “Use of modified tethers in screening compound libraries” (Glaxo Wellcome Inc., priority 1997, dated 2001).

How the values were obtained:
[1] = tested on: IL-1RFc; assay: Competition assay, IL-1RFc held on reservoir beads, released AP activity; format: binding; conditions: beads coated with streptavidin or biotin-MBP-AF12413
Description: This example uses two classes of beads referred to as reservoir beads and library beads. The reservoir beads have receptor immobilized via a known ligand. The library beads have compounds to be screened, identifier tags and tethers as before. A compound released from a library bead competes a labelled receptor from a reservoir bead, and the labelled receptor, directly or indirectly, modifies a tether on proximate library beads. Both sets of beads can be added to nanowells for performing the assay.
500 μl beads (Polysciences, Inc., 2.5% Solids-latex, 2 μm) were washed twice with PBS, resuspended in 1 ml of PBS and split into 5 tubes (a, b, c, d, e). 300 μl 1 mg/ml coating protein was added per tube and incubated at 37° C. for 3 hr on shaker. The beads were washed with PBT. Coating proteins were added in the five tubes as follows: a. BSA-Biotin (Sigma), b. BSA (LC)-Biotin (Sigma), c. Hemocyanin-Biotin (Sigma), d. Streptavidin (Gibco BRL), e. Biotin-MBP-AF12413 [[…](biotin)[…] (SEQ ID NO:30)-maltose binding protein-[…] (SEQ ID NO:31)].
The beads were blocked with 1 ml PBT and incubated at room temperature overnight on shaker and washed with PBT. 300 μl of 1 mg/ml streptavidin and 1.2 ml PBT were added to a, b, c, tubes, which were incubated at; 37° C. for 1 hour on shaker. The tubes were washed twice in PBS. […]

[2] = biological target: T1, IL-1R (Homo sapiens, UniProt P14778); assay: IL-1R binding assay
T1 sequence (P14778 18-569): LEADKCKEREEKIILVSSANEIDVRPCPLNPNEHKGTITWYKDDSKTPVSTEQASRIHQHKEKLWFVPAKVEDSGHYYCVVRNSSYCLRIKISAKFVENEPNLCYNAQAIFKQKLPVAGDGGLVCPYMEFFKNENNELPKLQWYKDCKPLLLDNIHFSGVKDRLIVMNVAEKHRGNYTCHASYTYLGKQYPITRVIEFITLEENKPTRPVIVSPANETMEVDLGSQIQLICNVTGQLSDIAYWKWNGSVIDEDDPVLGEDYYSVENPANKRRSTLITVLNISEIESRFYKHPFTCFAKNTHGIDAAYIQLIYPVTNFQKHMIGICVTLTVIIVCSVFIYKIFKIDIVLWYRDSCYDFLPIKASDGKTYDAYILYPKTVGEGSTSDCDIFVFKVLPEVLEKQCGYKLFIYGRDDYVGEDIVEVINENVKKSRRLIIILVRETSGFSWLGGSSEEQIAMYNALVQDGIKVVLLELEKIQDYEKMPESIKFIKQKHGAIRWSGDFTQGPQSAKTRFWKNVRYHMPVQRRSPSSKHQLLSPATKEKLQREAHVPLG

[3] = biological target: RARa (Retinoic Acid Receptor alpha) (Homo sapiens, UniProt P10276); assay: Gal4 DNA binding domain/RARa fusion with 5x UAS-tk-SEAP reporter in CHOK1 cells
RARa (Retinoic Acid Receptor alpha), sequence (P10276 whole entry, the tested form may be a part): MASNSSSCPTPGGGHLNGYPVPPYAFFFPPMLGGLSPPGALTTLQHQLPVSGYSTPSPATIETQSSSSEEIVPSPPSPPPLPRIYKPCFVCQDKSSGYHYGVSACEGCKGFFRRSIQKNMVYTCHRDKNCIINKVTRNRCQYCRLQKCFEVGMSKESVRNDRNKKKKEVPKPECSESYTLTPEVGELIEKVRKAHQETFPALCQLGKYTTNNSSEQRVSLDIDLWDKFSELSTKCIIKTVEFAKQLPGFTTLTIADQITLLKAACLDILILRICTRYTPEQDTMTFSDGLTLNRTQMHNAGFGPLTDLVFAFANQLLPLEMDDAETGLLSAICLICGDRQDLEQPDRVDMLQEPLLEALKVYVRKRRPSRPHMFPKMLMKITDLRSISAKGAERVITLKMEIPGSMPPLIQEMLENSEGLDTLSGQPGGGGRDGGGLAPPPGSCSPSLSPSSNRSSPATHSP
Description: The Gal4 DNA response element (5× UAS) was cloned upstream of the SEAP reporter gene, driven by the tk promoter, into the pGL3 vector (Promega). The pSG5 vector (Stratagene) was used to clone a Gal4 DNA Binding Domain/RARa (Retinoic Acid Receptor alpha)(carboxy end) fusion. These two plasmids were simultaneously transiently lipofected into CHOK1 cells using with Lipofectamine (Gibco BRL). The lipofected cells were seeded into individual wells on 2, 96-well culture plates (Falcon). The cells were grown for 16 hr in 100 μl/well Optimem Media (Gibco) with 10% dilapidated serum (Sigma) that was heat treated at 65° C. for 45 minutes before adding to the media. Serum was heated to inactivate endogenous phosphatases. After 16 hr growth at 37° C., there were 10^4 cells/well. Cells in one plate were stimulated with 1 μM retinoic acid; the cells in the other plate were not stimulated. Media was the same. The plates were incubated in the 37° C. cell culture incubator for another 24 hr. The supernatants were removed from the individual wells on the plates. All supernatants from stimulated cells were pooled; all supernatants from nonstimulated cells were pooled. Both were stored at 4° C. overnight. The cells were discarded.
The next day, 100 μl of each supernatant was tested for SEAP activity using the Tropix Chemiluminescent Assay Kit, as before.

IC50 [2]	Compound	Signal of released AP activity [1]	SEAP produced in supernatant ([3]; 1 μM retinoic acid, 24 hr stimulation)	fold induction at 1 µM ([3]; CHO-K1, 24 h, read-out: Increase in SEAP production upon stimulation)
~2 nM	NH2-YEWTPGYYQJY-NH2 [AF12304]	only background signals	–	–
–	CC1=C(/C=C/C(C)=C/C=C/C(C)=C/C(=O)O)C(C)(C)CCC1 [retinoic acid]	–	about 0.52 units of SEAP/ml	126
